Laboratory results published in ChEMBL document CHEMBL5678818, “Discovery of potent SOS1 inhibitors that block RAS activation via disruption of the RAS-SOS1 interaction” (Proc Natl Acad Sci U S A, 2019).

What was measured:
[1] = target: Serine/threonine-protein kinase MRCK beta (Homo sapiens) (UniProt Q9Y5S2); assay: Inhibition of MRCKB (unknown origin) assessed as residual activity at 1000 nM by KINOMEscan analysis relative to control
[2] = target: Serine/threonine-protein kinase 38 (Homo sapiens) (UniProt Q15208); assay: Inhibition of NDR1 (unknown origin) assessed as residual activity at 1000 nM by KINOMEscan analysis relative to control
Chain of Serine/threonine-protein kinase 38 (Homo sapiens) (Q15208 2-465 limits assumed): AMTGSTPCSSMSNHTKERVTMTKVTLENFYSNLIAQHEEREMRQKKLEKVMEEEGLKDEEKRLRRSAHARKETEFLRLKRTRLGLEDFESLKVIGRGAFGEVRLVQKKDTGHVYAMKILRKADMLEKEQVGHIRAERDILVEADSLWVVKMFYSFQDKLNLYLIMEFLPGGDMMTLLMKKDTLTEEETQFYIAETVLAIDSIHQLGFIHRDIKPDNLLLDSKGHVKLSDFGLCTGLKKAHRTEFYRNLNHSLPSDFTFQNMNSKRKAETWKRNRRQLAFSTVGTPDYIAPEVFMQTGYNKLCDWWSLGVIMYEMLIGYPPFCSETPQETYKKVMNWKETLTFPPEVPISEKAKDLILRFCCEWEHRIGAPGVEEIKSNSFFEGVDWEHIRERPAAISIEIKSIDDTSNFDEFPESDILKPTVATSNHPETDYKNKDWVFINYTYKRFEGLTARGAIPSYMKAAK

[3] = target: T1, Serine/threonine-protein kinase Nek5 (Homo sapiens) (UniProt Q6P3R8); assay: Inhibition of NEK5 (unknown origin) assessed as residual activity at 1000 nM by KINOMEscan analysis relative to control
T1 sequence (whole entry): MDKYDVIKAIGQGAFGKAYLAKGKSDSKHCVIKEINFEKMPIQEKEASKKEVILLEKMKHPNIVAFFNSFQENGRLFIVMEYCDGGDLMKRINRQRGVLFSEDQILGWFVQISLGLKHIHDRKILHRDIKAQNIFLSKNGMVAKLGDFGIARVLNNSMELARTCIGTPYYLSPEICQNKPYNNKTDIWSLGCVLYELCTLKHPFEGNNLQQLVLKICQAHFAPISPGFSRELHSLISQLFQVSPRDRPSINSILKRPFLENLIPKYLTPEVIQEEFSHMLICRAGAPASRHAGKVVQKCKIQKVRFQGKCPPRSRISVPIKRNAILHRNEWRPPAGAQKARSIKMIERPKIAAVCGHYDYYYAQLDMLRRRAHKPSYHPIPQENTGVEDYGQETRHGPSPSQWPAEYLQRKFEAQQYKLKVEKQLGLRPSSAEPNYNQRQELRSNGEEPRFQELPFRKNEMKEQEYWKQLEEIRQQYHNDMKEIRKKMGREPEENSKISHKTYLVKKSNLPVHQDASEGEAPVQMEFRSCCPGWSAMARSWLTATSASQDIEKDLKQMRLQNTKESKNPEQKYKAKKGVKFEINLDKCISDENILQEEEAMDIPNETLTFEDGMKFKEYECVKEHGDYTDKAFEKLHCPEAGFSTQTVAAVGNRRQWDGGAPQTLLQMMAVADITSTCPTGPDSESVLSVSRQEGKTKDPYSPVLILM

[4] = target: T2, Tyrosine-protein kinase TXK (Homo sapiens) (UniProt P42681); assay: Inhibition of TXK (unknown origin) assessed as residual activity at 1000 nM by KINOMEscan analysis relative to control
T2 sequence (whole entry): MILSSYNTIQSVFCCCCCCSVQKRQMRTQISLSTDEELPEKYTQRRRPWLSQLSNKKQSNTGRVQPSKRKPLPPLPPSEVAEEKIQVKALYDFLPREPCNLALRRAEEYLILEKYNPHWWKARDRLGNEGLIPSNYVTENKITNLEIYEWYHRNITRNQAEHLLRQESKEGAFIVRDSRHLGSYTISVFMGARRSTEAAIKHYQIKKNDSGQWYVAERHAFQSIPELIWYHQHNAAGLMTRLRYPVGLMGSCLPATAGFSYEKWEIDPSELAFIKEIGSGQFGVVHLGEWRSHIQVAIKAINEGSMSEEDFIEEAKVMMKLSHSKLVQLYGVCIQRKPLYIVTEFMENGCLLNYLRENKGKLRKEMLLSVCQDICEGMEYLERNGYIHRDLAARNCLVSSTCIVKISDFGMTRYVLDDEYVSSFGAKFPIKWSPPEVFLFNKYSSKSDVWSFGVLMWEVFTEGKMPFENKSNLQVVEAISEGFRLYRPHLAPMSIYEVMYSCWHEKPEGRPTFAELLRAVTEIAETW

[5] = target: T3, Rhodopsin kinase GRK1 (Homo sapiens) (UniProt Q15835); assay: Inhibition of GRK1 (unknown origin) assessed as residual activity at 1000 nM by KINOMEscan analysis relative to control
T3 sequence (whole entry): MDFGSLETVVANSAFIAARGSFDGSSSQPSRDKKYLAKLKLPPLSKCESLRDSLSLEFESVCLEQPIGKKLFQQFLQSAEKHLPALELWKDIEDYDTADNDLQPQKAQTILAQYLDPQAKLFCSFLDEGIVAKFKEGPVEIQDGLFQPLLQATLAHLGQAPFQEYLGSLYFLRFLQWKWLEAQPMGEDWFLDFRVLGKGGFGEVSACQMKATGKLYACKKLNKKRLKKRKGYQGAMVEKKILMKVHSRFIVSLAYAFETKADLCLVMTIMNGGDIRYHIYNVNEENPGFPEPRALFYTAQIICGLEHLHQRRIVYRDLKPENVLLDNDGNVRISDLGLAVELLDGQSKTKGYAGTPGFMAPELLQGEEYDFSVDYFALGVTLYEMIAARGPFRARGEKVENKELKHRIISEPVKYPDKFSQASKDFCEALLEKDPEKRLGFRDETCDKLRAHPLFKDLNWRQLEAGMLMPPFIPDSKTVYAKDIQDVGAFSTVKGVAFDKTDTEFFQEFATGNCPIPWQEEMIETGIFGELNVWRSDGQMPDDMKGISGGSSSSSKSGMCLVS

[6] = target: Phosphatidylinositol 4-phosphate 3-kinase C2 domain-containing subunit beta (Homo sapiens) (UniProt O00750); assay: Inhibition of PIK3C2B (unknown origin) assessed as residual activity at 1000 nM by KINOMEscan analysis relative to control
Chain of Phosphatidylinositol 4-phosphate 3-kinase C2 domain-containing subunit beta (Homo sapiens) (O00750 whole entry, the tested form may be a part): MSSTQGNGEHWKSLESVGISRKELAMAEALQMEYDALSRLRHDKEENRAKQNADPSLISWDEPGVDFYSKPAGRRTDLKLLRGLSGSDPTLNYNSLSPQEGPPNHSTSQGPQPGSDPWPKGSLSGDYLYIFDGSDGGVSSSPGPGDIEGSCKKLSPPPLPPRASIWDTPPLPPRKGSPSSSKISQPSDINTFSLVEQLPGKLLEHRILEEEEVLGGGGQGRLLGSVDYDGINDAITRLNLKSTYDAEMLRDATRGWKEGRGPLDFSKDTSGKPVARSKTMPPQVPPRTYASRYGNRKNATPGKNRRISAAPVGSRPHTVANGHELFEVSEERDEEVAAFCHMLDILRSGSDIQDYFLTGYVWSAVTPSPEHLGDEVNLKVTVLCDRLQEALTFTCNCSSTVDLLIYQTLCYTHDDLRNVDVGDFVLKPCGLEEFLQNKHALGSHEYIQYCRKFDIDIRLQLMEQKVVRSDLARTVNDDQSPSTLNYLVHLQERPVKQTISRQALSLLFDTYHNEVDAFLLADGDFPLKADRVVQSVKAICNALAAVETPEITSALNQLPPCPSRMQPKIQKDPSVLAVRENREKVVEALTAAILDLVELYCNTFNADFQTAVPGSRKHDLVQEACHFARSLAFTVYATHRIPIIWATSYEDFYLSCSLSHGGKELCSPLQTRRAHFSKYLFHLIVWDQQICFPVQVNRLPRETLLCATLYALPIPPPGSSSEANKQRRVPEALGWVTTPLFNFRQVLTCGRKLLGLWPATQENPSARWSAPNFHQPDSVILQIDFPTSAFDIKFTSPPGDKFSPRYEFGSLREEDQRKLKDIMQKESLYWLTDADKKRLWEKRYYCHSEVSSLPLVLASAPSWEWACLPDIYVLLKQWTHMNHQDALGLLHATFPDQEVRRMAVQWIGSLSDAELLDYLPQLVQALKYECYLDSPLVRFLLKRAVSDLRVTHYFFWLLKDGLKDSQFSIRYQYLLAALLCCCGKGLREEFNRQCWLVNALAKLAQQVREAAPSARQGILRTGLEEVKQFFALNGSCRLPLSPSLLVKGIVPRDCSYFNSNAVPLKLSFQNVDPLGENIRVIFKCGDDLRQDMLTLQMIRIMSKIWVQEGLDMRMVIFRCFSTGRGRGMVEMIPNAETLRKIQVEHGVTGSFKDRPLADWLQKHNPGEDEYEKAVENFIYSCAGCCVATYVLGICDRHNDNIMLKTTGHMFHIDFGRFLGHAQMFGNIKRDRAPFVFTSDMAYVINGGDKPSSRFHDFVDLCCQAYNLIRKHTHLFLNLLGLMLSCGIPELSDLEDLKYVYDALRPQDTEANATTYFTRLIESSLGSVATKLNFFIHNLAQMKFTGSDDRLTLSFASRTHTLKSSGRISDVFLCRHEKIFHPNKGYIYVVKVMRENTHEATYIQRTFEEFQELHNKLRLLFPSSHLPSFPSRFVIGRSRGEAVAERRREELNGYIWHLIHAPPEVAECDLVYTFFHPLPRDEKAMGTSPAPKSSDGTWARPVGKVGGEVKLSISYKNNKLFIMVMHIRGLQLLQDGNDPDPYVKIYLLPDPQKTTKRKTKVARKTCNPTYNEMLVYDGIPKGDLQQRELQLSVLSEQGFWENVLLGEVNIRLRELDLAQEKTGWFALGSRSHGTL

[7] = target: Platelet-derived growth factor receptor alpha (Homo sapiens) (UniProt P16234); assay: Inhibition of PDGFRA (unknown origin) assessed as residual activity at 1000 nM by KINOMEscan analysis relative to control
[8] = test system: Phosphatidylinositol 4,5-bisphosphate 3-kinase catalytic subunit alpha isoform (Homo sapiens), P42336 [H1047Y]; assay: Inhibition of PIK3CA H1047Y mutant (unknown origin) assessed as residual activity at 1000 nM by KINOMEscan analysis relative to control
Chain of Phosphatidylinositol 4,5-bisphosphate 3-kinase catalytic subunit alpha isoform (Homo sapiens), P42336 [H1047Y] (P42336 whole entry H1047Y, canonical isoform): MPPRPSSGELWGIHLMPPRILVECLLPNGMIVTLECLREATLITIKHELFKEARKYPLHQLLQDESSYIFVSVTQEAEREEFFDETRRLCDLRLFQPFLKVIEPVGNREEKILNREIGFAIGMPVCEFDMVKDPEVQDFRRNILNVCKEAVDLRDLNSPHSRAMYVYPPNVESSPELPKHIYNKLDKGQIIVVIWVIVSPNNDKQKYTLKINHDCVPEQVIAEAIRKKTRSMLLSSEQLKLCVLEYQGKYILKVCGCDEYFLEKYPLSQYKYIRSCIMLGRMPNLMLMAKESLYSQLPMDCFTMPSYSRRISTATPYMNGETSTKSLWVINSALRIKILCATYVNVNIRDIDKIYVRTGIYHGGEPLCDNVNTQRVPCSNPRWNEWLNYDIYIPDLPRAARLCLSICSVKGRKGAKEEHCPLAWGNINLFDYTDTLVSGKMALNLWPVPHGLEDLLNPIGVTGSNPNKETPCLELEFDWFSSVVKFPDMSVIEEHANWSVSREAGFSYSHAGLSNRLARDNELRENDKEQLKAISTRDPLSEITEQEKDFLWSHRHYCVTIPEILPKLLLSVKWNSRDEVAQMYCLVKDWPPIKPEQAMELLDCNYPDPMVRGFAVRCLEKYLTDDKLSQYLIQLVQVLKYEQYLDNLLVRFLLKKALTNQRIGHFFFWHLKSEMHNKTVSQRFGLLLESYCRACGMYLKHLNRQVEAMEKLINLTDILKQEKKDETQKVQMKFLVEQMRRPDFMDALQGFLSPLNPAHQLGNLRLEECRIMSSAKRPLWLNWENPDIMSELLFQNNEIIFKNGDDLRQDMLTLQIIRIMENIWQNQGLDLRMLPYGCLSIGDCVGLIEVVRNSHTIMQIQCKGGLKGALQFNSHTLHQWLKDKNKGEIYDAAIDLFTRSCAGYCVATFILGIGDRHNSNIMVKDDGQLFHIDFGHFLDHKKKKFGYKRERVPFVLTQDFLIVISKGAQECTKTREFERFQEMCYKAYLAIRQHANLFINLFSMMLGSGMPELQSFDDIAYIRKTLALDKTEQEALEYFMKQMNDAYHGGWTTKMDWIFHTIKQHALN

[9] = test system: Receptor-type tyrosine-protein kinase FLT3 (Homo sapiens), P36888 [UNDEFINED MUTATION]; assay: Inhibition of FLT3 ITD mutant (unknown origin) assessed as residual activity at 1000 nM by KINOMEscan analysis relative to control

Chain of Serine/threonine-protein kinase MRCK beta (Homo sapiens) (Q9Y5S2 whole entry): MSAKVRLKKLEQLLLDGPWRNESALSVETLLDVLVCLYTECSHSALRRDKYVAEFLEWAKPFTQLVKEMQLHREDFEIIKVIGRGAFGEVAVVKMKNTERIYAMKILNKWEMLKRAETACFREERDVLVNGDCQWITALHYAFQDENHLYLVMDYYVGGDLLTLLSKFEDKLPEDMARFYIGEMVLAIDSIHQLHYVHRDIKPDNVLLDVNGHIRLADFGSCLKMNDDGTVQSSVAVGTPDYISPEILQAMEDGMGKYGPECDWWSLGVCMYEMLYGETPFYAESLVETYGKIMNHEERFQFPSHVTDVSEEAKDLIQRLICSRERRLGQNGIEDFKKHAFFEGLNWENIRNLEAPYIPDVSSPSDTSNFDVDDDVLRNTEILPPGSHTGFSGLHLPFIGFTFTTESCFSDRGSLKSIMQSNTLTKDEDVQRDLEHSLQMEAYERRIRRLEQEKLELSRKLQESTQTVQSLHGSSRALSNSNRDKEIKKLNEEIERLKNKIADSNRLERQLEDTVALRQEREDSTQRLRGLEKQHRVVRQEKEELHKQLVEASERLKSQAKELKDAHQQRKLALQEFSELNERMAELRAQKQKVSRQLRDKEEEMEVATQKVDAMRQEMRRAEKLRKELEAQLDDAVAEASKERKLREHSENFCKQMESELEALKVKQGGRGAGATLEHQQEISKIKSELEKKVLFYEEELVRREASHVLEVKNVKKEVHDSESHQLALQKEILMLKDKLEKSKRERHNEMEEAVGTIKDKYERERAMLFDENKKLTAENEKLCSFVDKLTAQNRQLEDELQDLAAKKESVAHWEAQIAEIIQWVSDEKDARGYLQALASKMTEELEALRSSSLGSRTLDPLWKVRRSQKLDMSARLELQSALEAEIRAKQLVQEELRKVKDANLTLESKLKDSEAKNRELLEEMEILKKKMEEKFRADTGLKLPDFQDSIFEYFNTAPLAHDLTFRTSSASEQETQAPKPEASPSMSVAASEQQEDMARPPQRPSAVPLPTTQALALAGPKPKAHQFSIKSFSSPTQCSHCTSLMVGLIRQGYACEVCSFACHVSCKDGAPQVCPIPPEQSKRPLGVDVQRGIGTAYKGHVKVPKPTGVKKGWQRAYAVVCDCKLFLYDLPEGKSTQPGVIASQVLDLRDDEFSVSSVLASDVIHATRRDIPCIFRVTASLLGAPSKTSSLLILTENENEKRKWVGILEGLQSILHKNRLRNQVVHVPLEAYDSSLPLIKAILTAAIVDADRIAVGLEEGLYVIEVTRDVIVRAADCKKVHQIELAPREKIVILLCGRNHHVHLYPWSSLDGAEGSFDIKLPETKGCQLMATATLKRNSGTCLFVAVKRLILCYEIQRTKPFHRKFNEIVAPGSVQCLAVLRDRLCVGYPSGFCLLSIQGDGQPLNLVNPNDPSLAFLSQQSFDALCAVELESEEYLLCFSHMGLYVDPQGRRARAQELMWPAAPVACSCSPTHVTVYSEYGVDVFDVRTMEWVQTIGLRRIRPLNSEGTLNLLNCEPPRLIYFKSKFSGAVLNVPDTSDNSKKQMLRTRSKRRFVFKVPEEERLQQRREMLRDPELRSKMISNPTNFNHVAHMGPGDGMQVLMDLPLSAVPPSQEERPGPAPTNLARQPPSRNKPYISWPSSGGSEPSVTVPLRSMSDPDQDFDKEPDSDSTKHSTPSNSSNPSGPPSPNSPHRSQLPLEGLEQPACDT

SMILES | Activity [1] | Activity [2] | Activity [3] | Activity [4] | Activity [5] | Activity [6] | Activity [7] | Activity [8] | Activity [9]
COc1cc2nc(C)nc(N[C@H](C)c3cccc(-c4cn[nH]c4)c3)c2cc1OC | 56% | 64% | 90% | 83% | 55% | 90% | 100% | 63% | 58%
COc1cc2ncnc(N[C@H](C)c3cccc4ccccc34)c2cc1OC | 100% | 79% | 85% | 100% | 94% | 89% | 100% | 89% | 96%
